Results: patent US9029386B2, “Pyridine derivatives useful as kinase inhibitors” (YM Biosciences Australia Pty Ltd, priority 2006, dated 2015)

Assays:
[1] = tested on: Baf3-WT; assay: Cellular assay (Alamar Blue), Baf3-WT with mouse IL-3; type: cell-based; conditions: mouse IL-3 at 5 ng/ml, 72 hr
Procedure: Cells for the assays were prepared by harvesting cells from culture, and then diluting them in the appropriate growth medium to between 40,000 cell/mL and 600,000 cell/mL, depending on the cell line.
The compounds to be tested were added (104, 10× final concentration) to a flat bottomed 96-well plate. The cellular suspension (80 μL per well) was added, and one hour later the growth factor was added (human M-CSF at 20 ng/ml for mNFS-60, mouse IL-3 at 5 ng/ml for Baf3-WT). The plate was then incubated for 72 hr at 37° C., 5% CO2. Alamar Blue (10^4 per well) was added and the plates returned to the incubator for a further 4-8 hours.
The plates were then read using a fluorescence plate reader at excitation 544 nm and emission 590 nm.

[2] = target: T1, KDR protein kinase (Homo sapiens, UniProt P35968); assay: Alphascreen protein tyrosine kinase assay, KDR; type: biochemical
T1 construct: purchased Millipore 14-630M
Procedure: For screening purposes, compounds were diluted in 96 well plates at a concentration of 20 μM. Plates were warmed at 37° C. for 30 minutes before assay.
FLT-3 and PDGFR β tyrosine kinase enzymes were purchased from Upstate Cell Signalling Solutions, CA, USA (flt-3 catalog #: 14-500 and PDGFR β catalog #: 14-463). KDR protein kinase enzyme was purchased from Millipore (catalogue #14-630M).
Kinase assays were performed in 384 well Optiplates (Packard) using an Alphascreen Protein Tyrosine Kinase kit. […] The biotinylated peptides Biotin-[…]-NH2 for c-KIT and PDGFRβ and Biotin-[…]-NH2 for CSF1-R and FLT-3 (final concentration 0.1-3 μM) were used as substrates. Alphascreen phosphotyrosine acceptor beads followed by streptavidin donor beads were added under subdued light. The Alphascreen plates were read on a Packard Fusion Alpha. Inhibitors were added to the assays thirty minutes prior to the addition of ATP. Inhibitors were added in aqueous DMSO, with DMSO concentrations never exceeding 1%.

[3] = target: T2, EphA2(h) (Homo sapiens, UniProt P29317); assay: KinaseProfiler assay (Upstate), EphA2; type: biochemical
T2 construct: purchased Upstate Biotechnology (Dundee, UK), KinaseProfiler service
Procedure: (§1) Further enzyme assays were conducted at Upstate Biotechnology (Dundee, UK) in the KinaseProfiler™ Assay system.
(§2) The general protocol is as follows. All kinases are pre-diluted to a 10× working concentration prior to addition into the assay. The composition of the dilution buffer for the kinases is 20 mM MOPS pH 7.0, 1 mM EDTA, 0.1% β-mercaptoethanol, 0.01% Brij-35, 5% glycerol, 1 mg/ml BSA. All substrates are dissolved and diluted to working stocks in de-ionised water.
(§3) In a final reaction volume of 25 EphA2 (h) (5-10 mU) is incubated with 8 mM MOPS pH 7.0, 0.2 mM EDTA, 0.1 mg/ml poly(Glu, Tyr) 4:1, 10 mM MgAcetate and [γ-33P-ATP] (specific activity approx. 500 cpm/pmol, concentration as required). The reaction is initiated by the addition of the MgATP mix. After incubation for 40 minutes at room temperature, the reaction is stopped by the addition of 5 μl of a 3% phosphoric acid solution. 10 μl of the reaction is then spotted onto a Filtermat A and washed three times for 5 minutes in 75 mM phosphoric acid and once in methanol prior to drying and scintillation counting.

[4] = target: T3, EphA3(h) (Homo sapiens, UniProt P29320); assay: KinaseProfiler assay (Upstate), EphA3; type: biochemical
T3 construct: purchased Upstate Biotechnology (Dundee, UK), KinaseProfiler service
T3 sequence (P29320 21-983): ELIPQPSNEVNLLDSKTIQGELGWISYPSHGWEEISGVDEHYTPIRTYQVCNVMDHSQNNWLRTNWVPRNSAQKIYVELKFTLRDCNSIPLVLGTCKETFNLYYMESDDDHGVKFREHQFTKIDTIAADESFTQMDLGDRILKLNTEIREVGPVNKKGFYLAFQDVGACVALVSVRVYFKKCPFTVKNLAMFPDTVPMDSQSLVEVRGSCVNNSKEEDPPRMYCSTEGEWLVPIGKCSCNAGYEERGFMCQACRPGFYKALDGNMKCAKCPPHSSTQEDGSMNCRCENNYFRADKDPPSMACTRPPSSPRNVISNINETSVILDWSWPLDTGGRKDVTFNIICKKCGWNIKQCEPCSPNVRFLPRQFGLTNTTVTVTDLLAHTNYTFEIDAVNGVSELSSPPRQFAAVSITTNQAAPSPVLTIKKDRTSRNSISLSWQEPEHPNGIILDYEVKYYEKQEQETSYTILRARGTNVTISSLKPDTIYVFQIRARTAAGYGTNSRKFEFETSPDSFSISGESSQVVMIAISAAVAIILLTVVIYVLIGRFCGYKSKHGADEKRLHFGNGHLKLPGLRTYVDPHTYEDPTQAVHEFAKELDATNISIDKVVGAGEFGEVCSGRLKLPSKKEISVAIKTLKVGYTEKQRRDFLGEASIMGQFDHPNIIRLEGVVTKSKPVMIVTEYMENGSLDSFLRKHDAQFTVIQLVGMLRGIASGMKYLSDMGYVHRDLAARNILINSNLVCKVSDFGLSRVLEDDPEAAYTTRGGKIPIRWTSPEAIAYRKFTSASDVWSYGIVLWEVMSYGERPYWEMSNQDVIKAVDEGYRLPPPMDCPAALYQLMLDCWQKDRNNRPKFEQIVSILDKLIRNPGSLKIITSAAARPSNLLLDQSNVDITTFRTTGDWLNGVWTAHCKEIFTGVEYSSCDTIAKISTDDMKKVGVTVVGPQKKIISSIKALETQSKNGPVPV
Procedure: as §1, §2
as §3, with “EphA3” for “EphA2”

[5] = target: T4, Flt1(h) (Homo sapiens, UniProt P17948); assay: KinaseProfiler assay (Upstate), Flt1; type: biochemical
T4 construct: purchased Upstate Biotechnology (Dundee, UK), KinaseProfiler service
Procedure: as §1, §2
as §3, with “Flt1” for “EphA2”, “250 μM […],” for “0.1 mg/ml poly(Glu, Tyr) 4:1,”, “P30 filtermat” for “Filtermat A”

T2 sequence (P29317 24-976): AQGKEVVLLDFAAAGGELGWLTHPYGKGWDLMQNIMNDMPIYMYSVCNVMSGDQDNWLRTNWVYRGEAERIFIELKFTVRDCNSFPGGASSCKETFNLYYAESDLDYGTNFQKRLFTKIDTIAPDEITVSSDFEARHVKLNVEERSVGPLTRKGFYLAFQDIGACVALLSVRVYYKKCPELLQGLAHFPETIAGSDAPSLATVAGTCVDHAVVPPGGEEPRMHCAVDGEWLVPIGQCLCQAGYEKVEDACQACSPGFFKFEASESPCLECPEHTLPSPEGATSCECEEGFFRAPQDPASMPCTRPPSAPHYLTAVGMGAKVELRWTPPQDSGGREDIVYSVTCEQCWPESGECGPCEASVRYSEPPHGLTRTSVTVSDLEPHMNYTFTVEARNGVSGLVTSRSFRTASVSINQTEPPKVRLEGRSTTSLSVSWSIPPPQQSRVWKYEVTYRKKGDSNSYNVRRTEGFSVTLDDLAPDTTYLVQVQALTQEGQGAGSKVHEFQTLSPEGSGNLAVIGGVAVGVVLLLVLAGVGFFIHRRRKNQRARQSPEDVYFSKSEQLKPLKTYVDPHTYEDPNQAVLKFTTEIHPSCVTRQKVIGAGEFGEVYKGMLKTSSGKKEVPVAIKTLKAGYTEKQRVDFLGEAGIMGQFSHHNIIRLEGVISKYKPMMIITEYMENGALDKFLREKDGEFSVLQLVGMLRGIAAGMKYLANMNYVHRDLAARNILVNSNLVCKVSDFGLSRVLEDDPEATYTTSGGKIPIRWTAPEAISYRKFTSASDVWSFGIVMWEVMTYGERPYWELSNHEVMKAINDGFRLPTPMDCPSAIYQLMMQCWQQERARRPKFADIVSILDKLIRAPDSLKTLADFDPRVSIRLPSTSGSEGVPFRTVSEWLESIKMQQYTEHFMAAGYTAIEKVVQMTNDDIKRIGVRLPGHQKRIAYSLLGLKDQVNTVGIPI
T1 sequence (P35968 20-1356): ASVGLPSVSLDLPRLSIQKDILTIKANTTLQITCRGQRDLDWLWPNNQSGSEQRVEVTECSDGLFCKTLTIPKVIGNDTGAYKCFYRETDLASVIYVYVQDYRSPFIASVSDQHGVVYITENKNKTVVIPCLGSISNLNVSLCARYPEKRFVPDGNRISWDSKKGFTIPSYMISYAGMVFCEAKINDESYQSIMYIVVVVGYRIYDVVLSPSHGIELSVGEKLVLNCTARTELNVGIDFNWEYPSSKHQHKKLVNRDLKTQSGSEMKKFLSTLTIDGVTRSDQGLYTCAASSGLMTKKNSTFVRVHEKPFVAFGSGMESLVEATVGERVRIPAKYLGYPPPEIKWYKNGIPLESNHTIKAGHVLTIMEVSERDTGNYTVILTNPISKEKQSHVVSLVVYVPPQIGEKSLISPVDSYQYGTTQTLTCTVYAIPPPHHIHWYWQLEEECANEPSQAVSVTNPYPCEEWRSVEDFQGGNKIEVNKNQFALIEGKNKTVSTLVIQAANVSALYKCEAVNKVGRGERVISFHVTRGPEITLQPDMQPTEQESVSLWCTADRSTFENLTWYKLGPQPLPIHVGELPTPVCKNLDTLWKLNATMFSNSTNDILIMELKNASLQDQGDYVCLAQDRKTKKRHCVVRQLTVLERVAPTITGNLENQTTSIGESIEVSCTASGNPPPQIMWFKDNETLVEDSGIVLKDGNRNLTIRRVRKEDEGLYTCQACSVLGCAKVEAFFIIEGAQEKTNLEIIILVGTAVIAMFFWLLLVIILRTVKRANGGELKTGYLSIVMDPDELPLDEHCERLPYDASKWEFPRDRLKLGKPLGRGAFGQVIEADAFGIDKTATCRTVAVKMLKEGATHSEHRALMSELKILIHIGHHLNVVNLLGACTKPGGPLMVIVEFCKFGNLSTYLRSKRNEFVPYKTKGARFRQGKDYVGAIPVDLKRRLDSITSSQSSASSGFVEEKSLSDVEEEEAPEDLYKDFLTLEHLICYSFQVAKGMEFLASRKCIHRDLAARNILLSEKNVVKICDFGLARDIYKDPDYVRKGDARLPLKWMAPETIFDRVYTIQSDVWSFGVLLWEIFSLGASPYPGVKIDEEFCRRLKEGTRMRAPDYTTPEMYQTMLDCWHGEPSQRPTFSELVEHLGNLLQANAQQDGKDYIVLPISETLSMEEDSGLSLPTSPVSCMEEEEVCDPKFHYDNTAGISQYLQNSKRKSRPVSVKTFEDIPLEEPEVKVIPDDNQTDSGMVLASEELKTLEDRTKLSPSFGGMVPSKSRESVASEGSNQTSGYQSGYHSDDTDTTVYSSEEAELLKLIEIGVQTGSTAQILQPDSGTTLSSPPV
T4 sequence (P17948 27-1338): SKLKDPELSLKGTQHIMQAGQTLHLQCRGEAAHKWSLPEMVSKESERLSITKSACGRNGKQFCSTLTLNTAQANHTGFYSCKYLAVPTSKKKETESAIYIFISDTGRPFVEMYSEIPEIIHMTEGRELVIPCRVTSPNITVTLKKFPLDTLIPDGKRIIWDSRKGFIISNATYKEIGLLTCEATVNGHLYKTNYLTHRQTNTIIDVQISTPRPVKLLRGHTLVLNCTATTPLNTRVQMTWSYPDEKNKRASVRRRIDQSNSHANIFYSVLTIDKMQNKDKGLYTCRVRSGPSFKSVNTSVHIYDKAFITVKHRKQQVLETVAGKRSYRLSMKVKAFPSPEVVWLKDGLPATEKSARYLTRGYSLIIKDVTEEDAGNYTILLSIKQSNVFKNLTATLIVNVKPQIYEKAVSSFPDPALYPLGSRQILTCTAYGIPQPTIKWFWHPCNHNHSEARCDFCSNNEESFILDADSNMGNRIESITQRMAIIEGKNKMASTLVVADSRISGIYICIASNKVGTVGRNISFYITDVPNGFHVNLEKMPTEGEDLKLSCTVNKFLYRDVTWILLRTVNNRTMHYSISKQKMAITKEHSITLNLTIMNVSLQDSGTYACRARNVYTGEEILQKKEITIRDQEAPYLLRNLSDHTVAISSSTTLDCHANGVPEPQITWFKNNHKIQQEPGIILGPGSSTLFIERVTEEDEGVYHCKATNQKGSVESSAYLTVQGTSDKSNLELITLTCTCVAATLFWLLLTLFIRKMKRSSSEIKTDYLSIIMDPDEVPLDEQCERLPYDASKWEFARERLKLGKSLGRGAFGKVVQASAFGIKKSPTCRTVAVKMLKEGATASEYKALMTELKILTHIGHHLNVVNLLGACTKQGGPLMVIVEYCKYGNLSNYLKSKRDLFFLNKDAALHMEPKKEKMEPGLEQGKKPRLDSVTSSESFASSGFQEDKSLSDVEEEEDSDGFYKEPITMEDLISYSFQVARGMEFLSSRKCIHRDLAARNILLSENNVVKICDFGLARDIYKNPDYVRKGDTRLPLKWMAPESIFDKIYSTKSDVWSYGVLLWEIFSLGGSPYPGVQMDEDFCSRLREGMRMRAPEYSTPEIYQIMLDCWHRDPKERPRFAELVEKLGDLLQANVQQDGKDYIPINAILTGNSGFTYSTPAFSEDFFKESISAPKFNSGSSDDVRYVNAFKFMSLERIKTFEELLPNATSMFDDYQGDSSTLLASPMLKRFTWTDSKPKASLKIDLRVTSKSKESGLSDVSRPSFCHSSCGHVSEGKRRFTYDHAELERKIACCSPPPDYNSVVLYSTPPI

Row | IC50 [1] [µM] | IC50 [2] [µM] | inhibition at 0.1 µM [3] [%] | inhibition at 1 µM [3] [%] | inhibition at 0.1 µM [4] [%] | inhibition at 1 µM [4] [%] | inhibition at 0.1 µM [5] [%] | inhibition at 1 µM [5] [%] | Compound
1 | > 10 | < 0.1 | 87 | 102 | 17 | 70 | 98 | 100 | Cc1cccc(C(=O)Nc2cccc([C@H](C)Nc3cncc(-c4ccc(S(N)(=O)=O)cc4)n3)c2)c1 [Compound 77]
2 | > 10 | < 0.1 | 96 | 101 | 24 | 92 | 85 | 99 | C[C@H](Nc1cncc(Cl)n1)c1cccc(NC(=O)c2cccc(C(F)(F)F)c2)c1 [Compound 114, (S)—N-(3-(1-(6-chloropyrazin-2-ylamino)ethyl)phenyl)-3-(trifluoromethyl)benzamide]
3 | < 10 | < 0.1 | 24 | 93 | 18 | 76 | 96 | 100 | Cc1cccc(C(=O)Nc2cccc([C@H](C)Nc3cncc(-c4ccc(N5CCN(C)CC5)cc4)n3)c2)c1 [Compound 129]
4 | > 10 | < 0.1 | 69 | 99 | -4 | 34 | 92 | 99 | Cc1cccc(C(=O)Nc2cccc([C@H](C)Nc3cncc(C(N)=O)n3)c2)c1 [Compound 133, (S)-6-(1-(3-(3-methylbenzamido)phenyl)ethylamino)pyrazine-2-carboxamide]
5 | < 10 | < 0.1 | 80 | 99 | 0 | 58 | 90 | 96 | Cc1cccc(C(=O)Nc2cccc([C@H](C)Nc3cncc(-n4ccnc4)n3)c2)c1 [Compound 143, (S)—N-(3-(1-(6-(1H-imidazol-1-yl)pyrazin-2-ylamino)ethyl)phenyl)-3-methylbenzamide]
6 | > 10 | < 0.1 | 97 | 102 | 44 | 91 | 95 | 100 | Cc1cccc(C(=O)Nc2cccc([C@H](C)Nc3cncc(-c4cccc(N5CCOCC5)c4)n3)c2)c1 [Compound 147]
7 | < 10 | < 0.1 | 93 | 102 | 79 | 99 | 92 | 99 | C[C@H](Nc1cncc(-c2ccc(N3CCN(C)CC3)cc2)n1)c1cccc(NC(=O)c2cccc(C(F)(F)F)c2)c1 [Compound 148]
8 | > 10 | < 0.1 | 96 | 102 | 46 | 94 | 56 | 99 | C[C@H](Nc1cncc(-c2cccc(N3CCOCC3)c2)n1)c1cccc(NC(=O)c2cccc(C(F)(F)F)c2)c1 [Compound 149]
9 | – | – | 102 | 103 | 69 | 98 | 91 | 100 | Cc1cccc(C(=O)Nc2ccc(C)c([C@H](C)Nc3cncc(Cl)n3)c2)c1 [Compound 168]
